Measured values from ChEMBL document CHEMBL1129327, “Diphenylpropionic acids as new AT1 selective angiotensin II antagonists” (J Med Chem, 1996).

Columns and labels:
[1] = system: Rattus norvegicus; assay: (§1) In vivo inhibitory percentage of pressor response induced by exogenous submaximal dose of angiotensin -II […] administered iv to pithed rats; format: functional
[2] = molecular target: T1, Angiotensin II receptor (AT-1) type-1 (Rattus norvegicus, UniProt P29089+P25095); assay: Inhibitory concentration was evaluated by measuring displacement of [3H]AII from rat liver Angiotensin II receptor, type 1
T1 sequence (P29089 whole entry): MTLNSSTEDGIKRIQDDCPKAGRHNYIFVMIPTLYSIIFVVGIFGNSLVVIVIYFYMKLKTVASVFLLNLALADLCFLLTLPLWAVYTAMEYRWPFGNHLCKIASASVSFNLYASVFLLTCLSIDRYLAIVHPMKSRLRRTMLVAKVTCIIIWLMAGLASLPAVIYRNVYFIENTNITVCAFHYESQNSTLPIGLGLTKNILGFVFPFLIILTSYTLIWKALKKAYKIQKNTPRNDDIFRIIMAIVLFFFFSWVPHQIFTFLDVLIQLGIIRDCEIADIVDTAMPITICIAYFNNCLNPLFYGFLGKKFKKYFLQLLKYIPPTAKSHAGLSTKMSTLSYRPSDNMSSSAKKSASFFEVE
T1 sequence (P25095 whole entry): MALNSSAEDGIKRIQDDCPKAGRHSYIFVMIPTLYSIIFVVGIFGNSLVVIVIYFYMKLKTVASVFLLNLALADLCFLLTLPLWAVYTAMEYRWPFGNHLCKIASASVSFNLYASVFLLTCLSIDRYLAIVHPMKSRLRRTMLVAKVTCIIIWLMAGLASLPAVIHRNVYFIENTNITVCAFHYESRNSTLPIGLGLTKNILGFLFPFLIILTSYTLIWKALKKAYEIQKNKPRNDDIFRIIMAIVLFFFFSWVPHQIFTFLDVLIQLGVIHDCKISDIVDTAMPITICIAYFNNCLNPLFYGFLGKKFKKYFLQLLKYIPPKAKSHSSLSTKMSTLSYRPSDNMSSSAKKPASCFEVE

[3] = system: Rattus norvegicus; assay: as §1; format: functional; remark: listed apart in the source
[4] = molecular target: Angiotensin II receptor (Rattus norvegicus) (UniProt P29089+P25095+P35351); assay: In vivo inhibitory percentage of pressor response induced by exogenous submaximal dose of angiotensin-II (3 ug/kg) administered iv to pithed rats; format: functional, organism-based
Sequence of Angiotensin II receptor (Rattus norvegicus) (P35351 whole entry, looked up, one chain of several): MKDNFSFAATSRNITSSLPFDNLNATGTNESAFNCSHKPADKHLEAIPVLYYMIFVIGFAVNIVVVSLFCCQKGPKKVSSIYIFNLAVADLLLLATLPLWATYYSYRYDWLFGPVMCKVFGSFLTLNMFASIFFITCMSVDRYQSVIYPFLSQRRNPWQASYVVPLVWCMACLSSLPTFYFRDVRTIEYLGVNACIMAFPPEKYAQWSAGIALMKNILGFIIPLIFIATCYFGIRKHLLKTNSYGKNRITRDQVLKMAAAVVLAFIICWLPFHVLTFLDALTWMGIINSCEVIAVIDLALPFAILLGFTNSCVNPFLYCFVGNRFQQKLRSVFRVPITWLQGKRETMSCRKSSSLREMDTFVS

[5] = organism: Oryctolagus cuniculus; assay: Antagonism against A-2 induced contraction of aortic rings of rabbit.; details: read-out: pA2 (converted)
[6] = organism: Oryctolagus cuniculus; assay: Antagonism against A-2 induced contraction of aortic rings from rabbit.; format: functional; details: Aorta, read-out: pA2 (converted)

CCc1nc2c(C)cc(C)nc2n1Cc1ccc([C@H](c2ccccc2)[C@@H](CC)C(=O)O)cc1
Inhibition [1]: 44.9% | IC50 [2]: 0.45 µM

CCc1nc2c(C)cc(C)nc2n1Cc1ccc(/C(=C(/Br)c2nn[nH]n2)c2ccccc2)cc1 (stereo in doubt; 22d) [listing 1 of 2 here]
IC50 [2]: 0.29 µM

CCc1nc2c(C)cc(C)nc2n1Cc1ccc([C@H](c2ccccc2)[C@@H](C)C(=O)O)o1
Inhibition [1]: <10% | IC50 [2]: 5.6 µM

CCC[C@H](C(=O)O)[C@@H](c1ccccc1)c1ccc(Cn2c(CC)nc3c(C)cc(C)nc32)cc1
Inhibition [1]: 73.8% | IC50 [2]: 0.083 µM | Inhibition [3]: 64%

CCc1nc2c(C)cc(C)nc2n1Cc1ccc(C(=C(C(=O)O)C(=O)O)c2ccccc2)cc1
inhibition [4]: 69.2% | IC50 [2]: 0.32 µM

CCc1nc2c(C)cc(C)nc2n1Cc1ccc([C@H](c2ccccc2)[C@H](C)C(=O)O)cc1 (stereo in doubt; 36g)
Kb [5]: 2.04 nM | Inhibition [1]: 84.8% | IC50 [2]: 0.069 µM | Inhibition [3]: 68.5%

CCc1nc2c(C)cc(C)nc2n1Cc1ccc([C@H](c2ccccc2)[C@H](C)C(=O)NS(C)(=O)=O)cc1
Inhibition [1]: 71.3% | IC50 [2]: 0.058 µM | Inhibition [3]: 55.9%

CCc1nc2c(C)cc(C)nc2n1Cc1ccc(/C(=C(/Br)c2nn[nH]n2)c2ccccc2)cc1 (stereo in doubt; 22c) [listing 1 of 2 here]
IC50 [2]: 0.044 µM

CCc1nc2c(C)cc(C)nc2n1Cc1ccc([C@H](c2ccccc2)[C@@H](C)C(=O)O)cc1 (stereo in doubt; (-)37g)
Inhibition [1]: 22.1% | IC50 [2]: 0.18 µM

CCc1nc2c(C)cc(C)nc2n1Cc1ccc(C(CC(=O)O)c2ccccc2)cc1 (stereo not given)
inhibition [4]: 68.5% | IC50 [2]: 0.11 µM

CCc1nc2c(C)cc(C)nc2n1Cc1ccc([C@H](c2ccccc2)[C@H](C)C(=O)O)o1
Inhibition [1]: <10% | IC50 [2]: 4.8 µM

CCc1nc2c(C)cc(C)nc2n1Cc1ccc(/C(=C\C(=O)O)c2ccccc2)cc1 (stereo in doubt; 12B) [listing 1 of 2 here]
inhibition [4]: 22.9%

CCc1nc2c(C)cc(C)nc2n1Cc1ccc(/C(=C\c2nn[nH]n2)c2ccccc2)cc1 (stereo in doubt; 22a) [listing 1 of 2 here]
IC50 [2]: 0.092 µM

CCc1nc2c(C)cc(C)nc2n1Cc1ccc(C(CC(=O)NS(C)(=O)=O)c2ccccc2)cc1 (stereo not given)
inhibition [4]: 72.7% | IC50 [2]: 0.094 µM

CCc1nc2c(C)cc(C)nc2n1Cc1ccc(/C(=C\c2nn[nH]n2)c2ccccc2)cc1 (stereo in doubt; 22a) [listing 2 of 2 here]
inhibition [4]: 41%

CCc1nc2c(C)cc(C)nc2n1Cc1ccc([C@H](c2ccccc2)[C@H](C)C(=O)O)cc1 (stereo in doubt; (+36)g)
Inhibition [1]: 80.9% | IC50 [2]: 0.071 µM

CCc1nc2c(C)cc(C)nc2n1Cc1ccc(C(CC(=O)O)c2ccccc2Cl)cc1 (stereo not given)
inhibition [4]: 69.1% | IC50 [2]: 0.2 µM

CCc1nc2c(C)cc(C)nc2n1Cc1ccc(C(CC(=O)NS(=O)(=O)c2ccccc2)c2ccccc2)cc1 (stereo not given)
inhibition [4]: 48.2% | IC50 [2]: 0.36 µM

CCc1nc2c(C)cc(C)nc2n1Cc1ccc(/C(=C\C(=O)O)c2ccccc2)cc1 (stereo in doubt; 12B) [listing 2 of 2 here]
IC50 [2]: 0.17 µM

CCc1nc2c(C)cc(C)nc2n1Cc1ccc(C(c2ccccc2C)C(C(=O)O)C(=O)O)cc1 (stereo not given)
inhibition [4]: 62% | IC50 [2]: 0.21 µM

CCc1nc2c(C)cc(C)nc2n1Cc1ccc(C(CC)C(C)C(=O)O)cc1 (stereo not given)
inhibition [4]: 45.7% | IC50 [2]: 0.33 µM

CCc1nc2c(C)cc(C)nc2n1Cc1ccc(/C(=C(/Br)c2nn[nH]n2)c2ccccc2)cc1 (stereo in doubt; 22c) [listing 2 of 2 here]
inhibition [4]: 39.9%

CCc1nc2c(C)cc(C)nc2n1Cc1ccc([C@H](c2ccccc2)[C@@H](C)C(=O)O)cc1 (stereo in doubt; 37g)
Inhibition [1]: 28.2% | IC50 [2]: 0.25 µM | Kb [6]: 49 nM

CCc1nc2c(C)cc(C)nc2n1Cc1ccc(C(Cc2ccccc2)C(C(=O)O)C(=O)O)cc1 (stereo not given)
inhibition [4]: < 10% | IC50 [2]: > 10 µM

CCc1nc2c(C)cc(C)nc2n1Cc1ccc(C(C(C)C)C(C)C(=O)O)cc1 (stereo not given)
inhibition [4]: 30.4% | IC50 [2]: 0.6 µM

CCc1nc2c(C)cc(C)nc2n1Cc1ccc(/C(=C\c2nn[nH]n2)c2ccccc2)cc1 (stereo in doubt; 22b) [listing 1 of 2 here]
inhibition [4]: < 10%

CCc1nc2c(C)cc(C)nc2n1Cc1ccc(C(C)C(C)C(=O)O)cc1 (stereo not given)
inhibition [4]: 46%

CCc1nc2c(C)cc(C)nc2n1Cc1ccc(C(CCNS(=O)(=O)C(F)(F)F)c2ccccc2)cc1 (stereo not given)
IC50 [2]: > 10 µM

CCc1nc2c(C)cc(C)nc2n1Cc1ccc(C(c2ccccc2)C(CC)C(=O)O)cc1 (stereo not given)
inhibition [4]: 76.2% | IC50 [2]: 0.078 µM

CCc1nc2c(C)cc(C)nc2n1Cc1ccc(C(c2ccccc2)C(Br)C(=O)O)cc1 (stereo not given)
inhibition [4]: 47.1% | IC50 [2]: 0.17 µM

CCc1nc2c(C)cc(C)nc2n1Cc1ccc(/C(=C\c2nn[nH]n2)c2ccccc2)cc1 (stereo in doubt; 22b) [listing 2 of 2 here]
IC50 [2]: 0.13 µM

CCc1nc2c(C)cc(C)nc2n1Cc1ccc(C(CC(=O)O)c2ccc(-c3ccncc3)cc2)cc1 (stereo not given)
IC50 [2]: 5.3 µM

CCc1nc2c(C)cc(C)nc2n1Cc1ccc([C@H](c2ccccc2)[C@H](CC)C(=O)O)cc1
Inhibition [1]: 86.1% | IC50 [2]: 0.05 µM | Kb [6]: 3.89 nM | Inhibition [3]: 73.3%

CCc1nc2c(C)cc(C)nc2n1Cc1ccc(C(c2ccccc2)C(Cc2ccccc2)C(=O)O)cc1 (stereo not given)
inhibition [4]: 31.5% | IC50 [2]: 0.2 µM

CCc1nc2c(C)cc(C)nc2n1Cc1ccc(C(CC(=O)O)c2ccc(OC)cc2)cc1 (stereo not given)
IC50 [2]: 3.7 µM

CCc1nc2c(C)cc(C)nc2n1Cc1ccc(C(c2cccc(C)c2)C(C(=O)O)C(=O)O)cc1 (stereo not given)
inhibition [4]: 61.7% | IC50 [2]: 0.45 µM

CCc1nc2c(C)cc(C)nc2n1Cc1ccc(C(c2ccc(C)cc2)C(C(=O)O)C(=O)O)cc1 (stereo not given)
inhibition [4]: 17.1% | IC50 [2]: 1.1 µM

CCc1nc2c(C)cc(C)nc2n1Cc1ccc(C(c2ccccc2)C(C(=O)O)C(F)(F)F)cc1 (stereo not given)
inhibition [4]: 32.3%

CCc1nc2c(C)cc(C)nc2n1Cc1ccc(C(c2ccccc2)C(C)C(=O)O)cc1 (stereo not given)
inhibition [4]: 73.7% | IC50 [2]: 0.071 µM

CCc1nc2c(C)cc(C)nc2n1Cc1ccc([C@H](c2ccccc2)[C@@H](C)C(=O)O)cc1 (stereo in doubt; (+)37g)
Inhibition [1]: 19.7% | IC50 [2]: 0.44 µM

CCc1nc2c(C)cc(C)nc2n1Cc1ccc(C(Cc2nnn[nH]2)c2ccccc2)cc1 (stereo not given)
inhibition [4]: 55.4% | IC50 [2]: 0.12 µM

CCc1nc2c(C)cc(C)nc2n1Cc1ccc(/C(=C\C(=O)O)c2ccccc2)cc1 (stereo in doubt; 12A) [listing 1 of 2 here]
inhibition [4]: 30.4%

CCC[C@@H](C(=O)O)[C@@H](c1ccccc1)c1ccc(Cn2c(CC)nc3c(C)cc(C)nc32)cc1
Inhibition [1]: 27.8% | IC50 [2]: 0.59 µM

CCc1nc2c(C)cc(C)nc2n1Cc1ccc(C(c2ccccc2)C(C#N)C(=O)O)cc1 (stereo not given)
inhibition [4]: 68.7% | IC50 [2]: 0.16 µM

CCc1nc2c(C)cc(C)nc2n1Cc1ccc(C(CC(=O)O)c2ccc(F)cc2F)cc1 (stereo not given)
inhibition [4]: 40.4% | IC50 [2]: 0.25 µM

CCc1nc2c(C)cc(C)nc2n1Cc1ccc(C(c2ccccc2)C(C)(C)C(=O)O)cc1 (stereo not given)
inhibition [4]: 50.7% | IC50 [2]: 0.24 µM

CCc1nc2c(C)cc(C)nc2n1Cc1ccc(C(c2ccccc2)C(C(=O)O)C(=O)O)cc1 (stereo not given)
inhibition [4]: 79.9% | IC50 [2]: 0.12 µM

CCc1nc2c(C)cc(C)nc2n1Cc1ccc(/C(=C(/Br)c2nn[nH]n2)c2ccccc2)cc1 (stereo in doubt; 22d) [listing 2 of 2 here]
inhibition [4]: 22.8%

CCc1nc2c(C)cc(C)nc2n1Cc1ccc([C@H](c2ccccc2)[C@H](C)C(=O)O)cc1 (stereo in doubt; (-36)g)
Inhibition [1]: 80.3% | IC50 [2]: 0.076 µM

CCc1nc2c(C)cc(C)nc2n1Cc1ccc(C(CC(=O)O)c2ccccc2F)cc1 (stereo not given)
inhibition [4]: 68.7% | IC50 [2]: 0.13 µM

CCCCc1nc(Cl)c(CO)n1Cc1ccc(-c2ccccc2-c2nnn[nH]2)cc1 [LOSARTAN]
Inhibition [1]: 93.5% | Kb [6]: 2.95 nM | Inhibition [3]: 62.5%

CCc1nc2c(C)cc(C)nc2n1Cc1ccc(/C(=C\C(=O)O)c2ccccc2)cc1 (stereo in doubt; 12A) [listing 2 of 2 here]
IC50 [2]: 0.12 µM
